Laboratory results from patent publication US9884832B2 (priority 2011, dated 2018).
Read-outs that look alike come from different tables or passages of the source.

Experiments:
[1] = biological target: AM2 S31N (serine→asparagine mutation at residue 31 in the M2 protein) (Influenza A virus, UniProt P0DOF5, S31N); format: cell-based, influenza virus A/Udorn/72
[2] = biological target: AM2 V27A (valine→alanine mutation at residue 27 in the M2 protein) (Influenza A virus, UniProt P0DOF5, V27A); format: cell-based, influenza virus A/Udorn/72

Row | SMILES | S31N OOcyte Inhibition at 100 uM (%) ([1]; pH 5.5) | V27A OOcyte Inhibition at 100 uM (%) ([2]; pH 5.5) | S31N OOcyte Inhibition at 100 uM (%) [1] | V27A OOcyte Inhibition at 100 uM (%) [2]
1 | Cc1nn2cc(CNC3C4CC5CC(C4)CC3C5)nc2s1 (stereo not shown) [Example 106, Adamantan-2-yl-(2-methyl-imidazo[2,1-b][1,3,4]thiadiazol-6-ylmethyl)-amine] | B (key: (A)=31-95%; (B)=0-30%) | A (key: (A)=31-95%; (B)=0-30%) | – | –
2 | c1ccc(Oc2ccc(CNC34CC5CC(CC(C5)C3)C4)cc2)cc1 [Example 13a, Adamantan-1-yl-(4-phenoxy-benzyl)-amine] | – | – | A (key: (A)=31-95%; (B)=0-30%) | B (key: (A)=31-95%; (B)=0-30%)
3 | c1cc(-c2ccc(CNC34CC5CC(CC(C5)C3)C4)cc2)co1 [Example 42, N-(4-(Furan-3-yl)benzyl)adamantan-1-amine] | A (key: (A)=31-95%; (B)=0-30%) | B (key: (A)=31-95%; (B)=0-30%) | – | –
4 | O=c1ccc2cc(CNC34CC5CC(CC(C5)C3)C4)ccc2o1 [Example 42a, 6-((adamantan-1-ylamino)methyl)-2H-chromen-2-one] | – | – | B (key: (A)=31-95%; (B)=0-30%) | B (key: (A)=31-95%; (B)=0-30%)
5 | c1cc(CNC23CC4CC(CC(C4)C2)C3)c2cc[nH]c2c1 [Example 96, Adamantan-1-yl-(1H-indol-4-ylmethyl)-amine] | B (key: (A)=31-95%; (B)=0-30%) | A (key: (A)=31-95%; (B)=0-30%) | – | –
6 | c1ccc2cc(COc3ccc(CNC45CC6CC(CC(C6)C4)C5)cc3)ccc2c1 [Example 38a, N-(4-(naphthalen-2-ylmethoxy)benzyl)adamantan-1-amine] | – | – | B (key: (A)=31-95%; (B)=0-30%) | B (key: (A)=31-95%; (B)=0-30%)
7 | c1coc(-c2cc(CNC34CC5CC(CC(C5)C3)C4)no2)c1 [Example 153a, N-((5-(furan-2-yl)isoxazol-3-yl)methyl)adamantan-1-amine] | – | – | A (key: (A)=31-95%; (B)=0-30%) | B (key: (A)=31-95%; (B)=0-30%)
8 | Fc1ccc(CNC23CC4CC(CC(C4)C2)C3)cc1 [Example 27, Adamantan-1-yl-(4-fluoro-benzyl)-amine] | B (key: (A)=31-95%; (B)=0-30%) | B (key: (A)=31-95%; (B)=0-30%) | – | –
9 | Clc1ccc(CNC23CC4CC(CC(C4)C2)C3)s1 [Example 79a, N-((5-chlorothiophen-2-yl)methyl)adamantan-1-amine] | – | – | A (key: (A)=31-95%; (B)=0-30%) | B (key: (A)=31-95%; (B)=0-30%)
10 | COc1cc(O)cc(OC)c1CNC12CC3CC(CC(C3)C1)C2 [Example 66, 4-(Adamantan-1-ylaminomethyl)-3,5-dimethoxy-phenol] | B (key: (A)=31-95%; (B)=0-30%) | B (key: (A)=31-95%; (B)=0-30%) | – | –
11 | Cc1ccc(CNC23CC4CC(CC(C4)C2)C3)s1 [Example 78a, N-((5-methylthiophen-2-yl)methyl)adamantan-1-amine] | – | – | A (key: (A)=31-95%; (B)=0-30%) | A (key: (A)=31-95%; (B)=0-30%)
12 | [O-][S+]1Cc2cc(CNC34CC5CC(CC(C5)C3)C4)sc2C1 (stereo not shown) [Example 85, Adamantan-1-yl-(5-oxo-5,6-dihydro-4H-5M-thieno[3,4-b]thiophen-2-ylmethyl)-amine] | B (key: (A)=31-95%; (B)=0-30%) | B (key: (A)=31-95%; (B)=0-30%) | – | –
13 | CCSc1ccc(CNC23CC4CC(CC(C4)C2)C3)cc1 [Example 12a, N-(4-(ethylthio)benzyl)adamantan-1-amine] | – | – | A (key: (A)=31-95%; (B)=0-30%) | B (key: (A)=31-95%; (B)=0-30%)
14 | COc1ccc(-c2nnc(CNC34CC5CC(CC(C5)C3)C4)o2)cc1 [Example 127a, N-((5-(4-methoxyphenyl)-1,3,4-oxadiazol-2-yl)methyl)adamantan-1-amine] | – | – | A (key: (A)=31-95%; (B)=0-30%) | B (key: (A)=31-95%; (B)=0-30%)
15 | Oc1c(F)cc(CNC23CC4CC(CC(C4)C2)C3)cc1Cl [Example 68, 4-(Adamantan-1-ylaminomethyl)-2-chloro-6-fluoro-phenol] | B (key: (A)=31-95%; (B)=0-30%) | B (key: (A)=31-95%; (B)=0-30%) | – | –
16 | Oc1ccc(CNC23CC4CC(CC(C4)C2)C3)cc1F [Example 48, 4-(Adamantan-1-ylaminomethyl)-2-fluoro-phenol] | A (key: (A)=31-95%; (B)=0-30%) | A (key: (A)=31-95%; (B)=0-30%) | – | –
17 | Oc1ccc(CNC23CC4CC(CC(C4)C2)C3)cc1Cl [Example 47, 4-(Adamantan-1-ylaminomethyl)-2-chloro-phenol] | B (key: (A)=31-95%; (B)=0-30%) | A (key: (A)=31-95%; (B)=0-30%) | – | –
18 | c1cn2cc(CNC34CC5CC(CC(C5)C3)C4)nc2s1 [Example 86, Adamantan-1-yl-imidazo[2,1-b]thiazol-6-ylmethyl-amine] | A (key: (A)=31-95%; (B)=0-30%) | B (key: (A)=31-95%; (B)=0-30%) | – | –
19 | c1coc(-c2ccc(CNC34CC5CC(CC(C5)C3)C4)cn2)c1 [Example 60a, N-((6-(furan-2-yl)pyridin-3-yl)methyl)adamantan-1-amine] | – | – | A (key: (A)=31-95%; (B)=0-30%) | B (key: (A)=31-95%; (B)=0-30%)
20 | c1c(CNC23CC4CC(CC(C4)C2)C3)sc2c1CSC2 [Example 84, Adamantan-1-yl-(4,6-dihydro-thieno[3,4-b]thiophen-2-ylmethyl)-amine] | A (key: (A)=31-95%; (B)=0-30%) | B (key: (A)=31-95%; (B)=0-30%) | – | –
21 | OC1CCC(CNC23CC4CC(CC(C4)C2)C3)CC1 (stereo not shown) [Example 170a, 4-(Adamantan-1-ylaminomethyl)-cyclohexanol] | – | – | B (key: (A)=31-95%; (B)=0-30%) | B (key: (A)=31-95%; (B)=0-30%)
22 | Oc1ccc(CNC23CC4CC(CC(C4)C2)C3)c(O)c1O [Example 65, 4-(Adamantan-1-ylaminomethyl)-benzene-1,2,3-triol] | B (key: (A)=31-95%; (B)=0-30%) | A (key: (A)=31-95%; (B)=0-30%) | – | –
23 | Cc1ccsc1CNC12CC3CC(CC(C3)C1)C2 [Example 76a, N-((3-methylthiophen-2-yl)methyl)adamantan-1-amine] | – | – | B (key: (A)=31-95%; (B)=0-30%) | B (key: (A)=31-95%; (B)=0-30%)
24 | Oc1cccc(CNC23CC4CC(CC(C4)C2)C3)c1 [Example 31, 3-(Adamantan-1-ylaminomethyl)-phenol] | B (key: (A)=31-95%; (B)=0-30%) | A (key: (A)=31-95%; (B)=0-30%) | – | –
25 | COc1ccsc1CNC12CC3CC(CC(C3)C1)C2 [Example 74a, Adamantan-1-yl-(3-methoxy-thiophen-2-ylmethyl)-amine] | – | – | A (key: (A)=31-95%; (B)=0-30%) | B (key: (A)=31-95%; (B)=0-30%)
26 | Brc1ccc(CNC23CC4CC(CC(C4)C2)C3)s1 [Example 81a, N-((5-Bromothiophen-2-yl)methyl)adamantan-1-amine] | – | – | A (key: (A)=31-95%; (B)=0-30%) | B (key: (A)=31-95%; (B)=0-30%)
